This note sets out measurements from patent US9586999B2, “Methods and compositions related to improving properties of pharmacological agents targeting nervous system” (University of Utah Research Foundation, priority 2006, dated 2017).

“Also recorded” adds a separate entry of the source.

The test system of one assay is sound-induced seizures. The assay can be described thus: Frings audiogenic seizure-susceptible mouse model of reflex epilepsy. The conditions noted are these: i.p., 4 mg/kg for time course, dose-response 1 h after dosing. Type of assay: in vivo.
Excerpt: (§1) The ability of individual modified peptides to prevent seizures induced by sound in the AGS-susceptible Frings mouse model can be assessed at the time of peak effect (White et al., 1992). For this test, individual mice are placed into a plexiglass cylinder (diameter, 15 cm; height, 18 cm) fitted with an audio transducer (Model AS-ZC; FET Research and Development, Salt Lake City, Utah), and exposed to a sound stimulus of 110 decibels (11 KHz) delivered for 20 seconds. Sound-induced seizures are characterized by wild running followed by loss of righting reflex with forelimb and hindlimb tonic extension. Mice not displaying hindlimb tonic extension are considered protected.
The two modified galanin analogs (GAL-BBB1 and GAL-BBB2) were administered i.p. to a group of Frings audiogenic seizure susceptible mice in a dose of 4 mg/kg. At various times after administration (i.e., 15, 30, 60, 120, and 240 min) each mouse was placed into a cylindrical test chamber fitted with an audio transducer and challenged with a high-intensity sound stimulus (110 dB, 11 KHz for 20 sec). Animals not displaying tonic hind-limb extension were considered protected. […] In a subsequent study, anticonvulsant efficacy was quantitated at the time to peak effect (i.e., 1 h) in a dose-response study.
as §1, with “analogs” for “peptides”
At various times after administration (i.e., 15, 30, 60, 120, and 240 min) each mouse was placed into a cylindrical test chamber fitted with an audio transducer and challenged with a high-intensity sound stimulus (110 dB, 11 KHz for 20 sec).

For a further assay, the system named is corneal kindling. The assay can be described thus: Mouse corneal kindling acquisition. Type of assay: in vivo. The protocol: CF#1 mice were randomized to receive either vehicle (0.9% saline) or NAX-5055. Mice in the NAX-5055 group received two doses of NAX-5055 twelve (12 h) and 1 h prior to their first kindling stimulation. One hour (1 h) prior to each subsequent stimulation, mice in the NAX-5055 treated group received another dose of NAX-5055 (4 mg/kg, i.p.). Mice were stimulated twice daily for 16 days. Results are expressed as the mean seizure score per stimulation. As noted above, the results for the NAX-5055 treated mice segregated into two populations; i.e., sensitive (green line) and insensitive (blue line).
Mice treated with NAX-5055 (see legend to Figure X for experimental details) segregated into two treatment groups; i.e., NAX-5055 sensitive and NAX-5055 insensitive. Results are expressed as the number of stimulations required to reach a particular seizure score+/−S.E.M.; i.e., 1 to 5. […] One Way ANOVA, p<0.0209; post hoc analysis: saline vs. NAX-5055 insensitive, p>0.05; NAX-5055 sensitive vs. NAX-5055 insensitive, p<0.05.
Daily electrical stimulation via the cornea results in a stable kindled state within 15-20 days. This is an ideal model to initially assess the ability of selected galanin analogs to prevent kindling acquisition because the amount of peptide required is much lower than what is required for a rat kindling study. Those compounds found to be effective in preventing the acquisition of kindling are subsequently evaluated in a more traditional rat kindling model; i.e., amygdala kindled rat. For the proposed studies two groups of mice (n=8 mice per group) are randomized to receive either vehicle or peptide prior to each kindling stimulation. […] At the time to peak effect (obtained from the 6 Hz study), they are stimulated via corneal electrodes with a subconvulsive current (50 Hz, 3 mA, for 3.0 sec) and observed for the presence or absence of seizure activity. Seizure activity is scored according to the criteria established by Racine et al., (1972). Animals receive two stimulations per day until they display their first Stage 5 behavioral seizure and then once daily until they display stable secondarily generalized seizures (5 consecutive Stage 4-5 seizures). Peptide treatment continues in the experimental group until the point that the control mice become fully kindled. At this point, mice in both groups are permitted a one-week stimulus and treatment-free week. On the 8th day, mice in both groups are stimulated in the absence of peptide or vehicle and their seizure score recorded.
The ability of the blood-brain-barrier penetrant galanin-based neuropeptide NAX-5055 to prevent the development of corneal kindling was studied in CF#1 mice. […] Following stimulation seizure activity was scored on a scale of 0-5 as established by Racine (1972).

Setting [1] is: 4 mg/kg i.p. twice daily, NAX-5055 sensitive group.

For “Sar-Trp-Thr-Leu-Asn-Ser-Ala-Gly-Tyr-Leu-Leu-Gly-Pro-Lys-Lys-(Lys-palm)-Lys-NH2 [NAX 5055]”, the “anticonvulsant effect against sound-induced seizures” value (shortened to “anticonvulsant effect”) in the assay with sound-induced seizures (4 mg/kg) was “effective; also recorded: time-dependent anticonvulsant activity; also recorded: dose-dependent protection”. The “anticonvulsant effect” value in the assay on sound-induced seizures (listed as GAL-BBB2, 4 mg/kg) is recorded as “dose-dependent effect”. The “anticonvulsant effect” value with sound-induced seizures (listed as Gal BBB-2, 4 mg/kg) is “time (inset) and dose-dependent protection”. Besides, the kindling acquisition entry in the assay on corneal kindling (4 mg/kg i.p.) is given as “can delay kindling acquisition”. Besides, in the assay on corneal kindling (setting [1]), the “Stage 5 seizures” value is reported as “none of the mice in the NAX-5055 sensitive group reached Stage 5 seizures”; the “more stimulations to reach Stage 2 and Stage 3 seizures” value was 35-40%; the “stimulations required to reach a Stage 1 seizure” value was “two times more stimulations”.
